The source of these data is patent US20120164154A1, “METHOD FOR INCREASING INSULIN SENSITIVITY AND FOR TREATING AND PREVENTING TYPE 2 DIABETES” (priority 2002, published 2012).

Assay [1] deals with isolated soleus muscle. The assay is described as follows: Basal and insulin-stimulated 2-deoxyglucose uptake in isolated soleus muscle. Also on record: species or system mice. The following applies: 0.1 m-unit of insulin/ml, 2 h preincubation, 2-deoxyglucose uptake 15 min. Here is the method:
(A) Representative immunoblot of GLUT4 protein expression along with combined densitometric analysis. Muscle from 3 SCD1+/+ and 3 SCD1−/− mice were pooled. Plasma membranes were prepared as described in Example 1. Equal amount of protein was separated by SDS-PAGE and immunoblotted with GLUT4 antibody. Experiment was repeated three times. Data are shown as means±SD. *P<0.05 vs controls. Nitrocellulose membrane was stripped and reprobed with GAPDH antibody to ensure equal loading of the protein. (B) Glucose uptake measured in vivo in soleus and gastrocnemius muscles. […] The 2-deoxyglucose uptake was calculated as the difference between the total muscle radioactivity and the radioactivity of the muscle extracellular space measured using [1-^3H] mannitol. […]
Determination of plasma membrane GLUT4 levels, glucose uptake and glucose oxidation. Muscle plasma membranes were prepared from muscle of SCD1−/− and SCD1+/+ mice and GLUT4 levels were determined as described in Agote, M. et al. (2001) Am. […] The scintillation cocktail was added and radioactivity was counted in a liquid scintillation counter. The 2-deoxyglucose (2-DG) uptake was calculated as the difference between the total muscle radioactivity and the radioactivity of the muscle extracellular space. […] Glucose oxidation was determined in thin slices (20-30 mg) of gastrocnemius muscle as described in Baque, S. et al. (2001) Am. […]

A short description of assay [2]: Insulin tolerance test. Format: in vivo. Particulars: SCD1-/- mice compared with wild-type mice. From the text: Animals and Diets. SCD1−/− mice in SV129 background were generated and genotyped as described in Miyazaki, M. et al. (2001) J. Nutr. 131, 2260-2268. The wild-type (SCD1+/+), heterozygous (SCD1+/−) and homozygous (SCD1−/−) mice are housed and bred in a pathogen-free barrier facility of the Department of Biochemistry (University of Wisconsin, Madison) operating at room temperature in a 12-h light/12-h dark cycle. The breeding of these animals was in accordance with the protocols approved by the animal care research committee of the University of Wisconsin. At 3 weeks of age, the mice were fed ad libitum a standard laboratory chow diet or a high-fat diet for 23 weeks. The high-fat diet contains 195 g/kg casein, 3 g/kg DL-methionine, 377 g/kg sucrose, 150 g/kg corn starch, 153 g/kg anhydrous milkfat, 10 g/kg corn oil, 1.5 g/kg cholesterol, 60.067 g/kg cellulose, 35 g/kg mineral mix AIN-76 (170915), 4 g/kg calcium carbonate, 10 g/kg vitamin mix Teklad (40060), 1.2 g/kg choline bitartrate, and 0.033 g/kg ethoxyquin (antioxidant). The weight of each mouse within each group was measured weekly; the data are presented as means±SD (n=8, P<0.001). The glucose tolerance and insulin tolerance were determined as described in Stoehr, J. P. et al. (2000) Diabetes 49, 1946-1954.

On to insulin, for which the figures for the “insulin-mediated glucose uptake (fold)” value in assay [1] (isolated soleus muscle from SCD1+/+ mice) and in assay [1] (isolated soleus muscle from SCD1-/- mice) were 1.6 fold and 2.1 fold, respectively. Besides, in assay [2], the “glucose lowering effect of insulin” value is “greater in the SCD1−/− mice than wild-type mice”.
